Like-named read-outs stand apart in the source and are kept apart here.
Legend:
[1] = Unbound fraction by rapid equilibrium dialysis, HLM; format: in vitro ADME, human
Method: To investigate the metabolic interaction potential between DUT and KET, the disappearance of DUT (5 μM) in RLM and HLM was determined under the absence and presence of KET at various concentrations ranging from 1 to 5000 nM. A microsomal reaction mixture was prepared as follows (total volume: 0.2 mL): 1 mM NADPH, 10 mM MgCl2, substrate (DUT), and inhibitor (KET), RLM or HLM (1 mg/mL), and 50 mM phosphate buffer. At 0 and 90 min after starting the metabolic reaction, a 50 μL aliquot of microsomal incubation mixture was sampled and immediately transferred into a clean 1.5 mL microcentrifuge tube containing 100 μL cold ACN with an internal standard (celecoxib at 400 ng/mL) to stop the metabolic reaction. After vortex mixing and centrifugation at 15,000× g for 10 min, a 100 μL aliquot of the supernatant was stored at −80 °C. The unbound fractions of DUT in rat plasma, RLM, human plasma, and HLM were measured using a rapid equilibrium dialysis (RED) device (Thermo Fisher Scientific, Inc., Waltham, MA, USA) as described in a previous study. […] The fraction unbound was calculated as the ratio of the drug concentrations in the “buffer” chamber to those in the “sample” chamber. The blood-to-plasma concentration ratio (RB) of DUT was determined as described previously. […] The concentrations of DUT in the plasma sample were determined by the validated HPLC analysis.

type-2 5AR = tested on: type-2 5AR; design: method as in PMID 16964191, PMID 16719800; settings: previous in vitro studies; cited from earlier work
[2] = In vivo pharmacokinetic study in rats, oral DUT without or with KET; design: species or system rat; settings: for AUC(0-t) / Cmax: po, 5 mg/kg
Source text: The animal experiment protocols used in the present study were approved by the Pusan National University-Institutional Animal Care and Use Committee for scientific care and ethical procedures (Busan, Korea; approval date: 01/05/2018; approval number: PNU-2018-1848). Male Sprague–Dawley rats (8-week-old; approximately 250 g) were purchased from DBL Co., Ltd. (Incheon, Korea). The rats were acclimatized in a clean room of the Laboratory Animal Center of Pusan National University (Busan, Korea) for 1 week. Then, they were fasted for 12 h prior to the pharmacokinetic experiment and then anesthetized by intramuscular injection of Zoletil at a dose of 20 mg/kg. The femoral vein and artery of the rats were cannulated with a polyethylene tube (BD Medical; Franklin Lakes, NJ, USA). At approximately 4–6 h after the surgery for cannulation, an intravenous dose of DUT (2.5 mg/kg) simultaneously with or without intravenous KET ([…]) was administered to the rats. Drugs were dissolved in a vehicle consisting of dimethyl sulfoxide, ethanol, and polyethylene glycol 400 at a ratio of 10:5:85 (v/v/v). Blood (approximately 200 μL) was collected in heparin pre-treated microcentrifuge tubes via the femoral artery at 0, 1, 5, 15, 30, 60, 120, 180, 240, 360, 480, and 1200 min after the intravenous dose and at 0, 5, 15, 30, 60, 120, 150, 180, 240, 360, 480, and 1200 min after the oral dose. Following centrifugation of the blood samples at 3000× g at 4 °C for 10 min [19], 100 μL aliquots of plasma were stored at −80 °C.
The half maximal inhibitory concentration (IC50) of KET for the inhibition of the DUT metabolism was determined by the nonlinear regression analysis (GraphPad Prism ver. 5.01; GraphPad Software Inc., San Diego, CA, USA) based on the following Hill equation: y = Min + Max−Min/1 + (x/IC50)^-P where Max and Min are the initial and final y value, respectively, and the exponent P represents the Hill coefficient. Peak plasma concentration (Cmax) and time to reach Cmax (Tmax) were read directly from the observed data. Non-compartmental analysis was conducted to estimate pharmacokinetic parameters such as total area under plasma concentration versus time curve from time zero to time of last sampling (AUClast), total area under plasma concentration versus time curve from time zero to infinity (AUCinf), total plasma clearance (CL), volume of distribution at steady state (Vss), and terminal half-life (t1/2) using the NCA200 and 201 models of WinNonlin ver. 3.1 (Certara USA Inc., Princeton, NJ, USA).

[3] = male, Sprague-Dawley, rat, plasma, oral DUT 5 mg/kg with oral KET (20 mg/kg), n = 4
[4] = male, Sprague-Dawley, rat, plasma, oral DUT 5 mg/kg, DUT alone, n = 4

In the case of `C[C@]12C=CC(=O)N[C@@H]1CC[C@@H]1[C@@H]2CC[C@]2(C)[C@@H](C(=O)Nc3cc(C(F)(F)F)ccc3C(F)(F)F)CC[C@@H]12` [DUT, Dutasteride], the “fraction of unbound DUT, presence versus absence of KET” value ([1]; DUT and KET 5 μM, n = 5) is listed as “no significant differences”, the fraction unbound at 5 μM ([1]; human, human liver microsomes, DUT 5 μM, RED device) is listed as 0.091 and the “more potent inhibition of type-2 5AR compared to finasteride” value (type-2 5AR) is listed as 2.5 fold. The concentration at 30 min ([2]; male, Sprague-Dawley, rat, plasma sample collected at 30 min after oral DUT 5 mg/kg, representative chromatogram) was 276 ng/mL, the Tmax ([2]; male, Sprague-Dawley, rat, plasma, oral DUT 5 mg/kg, DUT alone, median (range), n = 4, read-out: Tmax (converted)) was 1 h and the AUC(0-t) [2, 3] was 6470 ng·h/mL. The Cmax [2, 3] was 419 ± 27 ng/mL, the AUC(0-t) [2, 4] was 4580 ng·h/mL and the Cmax [2, 4] was 289 ± 10 ng/mL. The Tmax ([2]; oral DUT 5 mg/kg with oral KET (20 mg/kg), median, n = 4) was 1 h.

Reference: PMC6956158, “In Vitro and In Vivo Assessment of Metabolic Drug Interaction Potential of Dutasteride with Ketoconazole” (Pharmaceutics, 2019)
